Reference: US20050136444A1 (priority 2003, published 2005)
Counter-ions that a name gives are not always drawn. Like-named read-outs stand apart in the source and are kept apart here.

What was measured:
EP2 receptor = target: T1, EP2 receptor (Homo sapiens, UniProt P43116); test: cAMP response to PGE2 in HEK-T cells (EP2 co-transfection); assay type: cell-based; conditions: doses as high 10 μM
T1 construct: expressed in transfected cells; host or cells: HEK-T
Text: (§1) An assay was established for measuring cAMP in transiently transfected cells that takes advantage of the fact that most cells that are transfected with one gene, can be simultaneously transfected with other genes. Thus, the NPFF1 and NPFF2 receptors were transfected along with a Gs-coupled receptor (EP2) at a ratio of 5:1.

rats = test: Observed behaviors / side effects after systemic administration; assay type: in vivo, rat; conditions: rats, i.p.
Description: These behaviors typically precede “barrel-rolling” seizures.
These effects persisted between 15 and 20 minutes. These effects were not observed in rats that received doses less than 10 mg/kg.
These effects persisted between 15 and 20 minutes and were shown by both sham-operated and SNL rats. These effects were not observed in rats that received doses less than 10 mg/kg. [drawing 22]
However, these effects were more robust and of longer duration (60-90 min).
These effects persisted between 60 and 90 minutes and were shown by both sham-operated and SNL rats. These effects were not observed in rats that received doses less than 10 mg/kg. [drawing 23]
A model of neuropathic pain was created in rats by tight ligation of the L5 and L6 spinal nerves. […] Rats were then treated with various doses of dPQR (3, 10 and 30 mg/kg, i.p.) and paw withdrawal thresholds were tested across a period of 3 hours.
A model of neuropathic pain was created in rats by tight ligation of the L5 and L6 spinal nerves. […] Rats were then treated with various doses of Compound 3099 (1, 3 and 10 mg/kg, i.p.) and paw withdrawal thresholds were tested across a period of 3 hours.
In an attempt to increase the efficacy of Compound 3099 in the SNL model, we administered a dose of 30 mg/kg (i.p.) to SNL rats. […] Further, these behaviors were also transient, such that, by the end of the testing period these effects appeared to have resolved.

NPFF1 = NPFF1 (Homo sapiens, UniProt Q9GZQ6); test: Receptor Selection and Amplification Technology (R-SAT) functional assay, NPFF1; assay type: cell-based; parameters: expressed in transfected cells; host or cells: NIH3T3; conditions: for EC50: NA = No activity detectable at the highest dose tested (20 μM), read-out: NPFF1 pEC50 (converted)
Description: (§2) Briefly, NIH3T3 cells were grown in 96 well tissue culture plates to 70-80% confluence. Cells were transfected for 16-20 h h with plasmid DNAs using Polyfect (Qiagen Inc.) as per manufacturer's protocols. R-SAT's were generally performed with 40 ng/well of receptor and 20 ng/well of β-galactosidase plasmid DNA. All receptor and G-protein constructs used were in the pSI-derived mammalian expression vector (Promega Inc) as described previously. […] For large-scale transfections, cells were transfected for 16-20 h, then trypsinized and frozen in DMSO. Frozen cells were later thawed, plated at ˜20,000 cells per well of a 96 half-area well plate that contained drug. With both methods, cells were then grown in a humidified atmosphere with 5% ambient CO2 for five days. Media was then removed from the plates and marker gene activity was measured by the addition of the β-galactosidase substrate o-nitrophenyl β-D-galactopyranoside (ONPG, in PBS with 0.5% NP-40). The resulting colorimetric reaction was measured in a spectrophotometric plate reader (Titertek Inc.) at 420 nm. All data were analyzed using the computer program XLFit (IDBSm).
(§3) R-SAT assay was conducted as set forth in […]

NPFF2 = target: T2, NPFF2 (Homo sapiens, UniProt Q9Y5X5); test: Receptor Selection and Amplification Technology (R-SAT) functional assay, NPFF2; assay type: cell-based
T2 construct: expressed in transfected cells; host or cells: NIH3T3
Description: as §2, §3

NPFF2b = target: T3, NPFF2b (Homo sapiens, UniProt Q9Y5X5); test: cAMP assay in transiently transfected HEK-T cells, NPFF2; assay type: cell-based; conditions: HEK-T cell, read-out: NPFF2b % Efficacy Mean
T3 construct: expressed in transfected cells; host or cells: HEK-T
Description: as §1
This set up was routinely used for the transfection of HEK-T cells with NPFF1 and NPFF2 receptors. […] Cells were incubated for 15 minutes at 37° C. At the end of incubation, cells were lysed and the remainder of the assay performed as per DiscoveRx protocol.
Cells were incubated for another 15 minutes at 37° C. following which the cells were lysed and processed as per kit protocol.

Barrel Rotations [1] = conditions: 60 μg, reported by Panula et al. 1996; cited from earlier work
Barrel Rotations [2] = test: Barrel rotations after ICV administration of NPFF; assay type: in vivo, rat; conditions: naive rats
Text: Given that this is the only mention in the literature with respect to NPFF and barrel-rotation, we attempted to replicate this effect using naive rats implanted with ICV cannula.

[3] = test system: 52° C. Water Tail Flick Test; test: 52° C. Water Tail Flick Test, intrathecal administration; assay type: in vivo, rat; conditions: rats
Description: Rats were implanted with chronically indwelling intrathecal catheters (PE-10; 7.5 cm) allowing for the delivery of compounds to the lumbar spinal cord. As a positive control, rats were treated with various doses of morphine (3, 10 and 30 μg).
Rats were implanted with chronically indwelling intrathecal catheters (PE-10; 7.5 cm) allowing for the delivery of compounds to the lumbar spinal cord.
Rats were implanted with chronically indwelling intrathecal catheters (PE-10; 7.5 cm) allowing for the delivery of compounds to the lumbar spinal cord. In order to rule out the possibility that the lack of antinociception produced by NPFF was due to the degradation of the peptide we administered 1DME (a stable NPFF analog).

[4] = R-SAT, Table 1, Efficacy is relative to endogenous ligand, read-out: NPFF1 % Efficacy
[5] = R-SAT, Table 1, Efficacy is relative to endogenous ligand, read-out: NPFF2 % Efficacy
[6] = R-SAT, Table 1, NA = No activity detectable at the highest dose tested (20 μM), read-out: NPFF2 pEC50 (converted)

T2 sequence (Q9Y5X5 103-522): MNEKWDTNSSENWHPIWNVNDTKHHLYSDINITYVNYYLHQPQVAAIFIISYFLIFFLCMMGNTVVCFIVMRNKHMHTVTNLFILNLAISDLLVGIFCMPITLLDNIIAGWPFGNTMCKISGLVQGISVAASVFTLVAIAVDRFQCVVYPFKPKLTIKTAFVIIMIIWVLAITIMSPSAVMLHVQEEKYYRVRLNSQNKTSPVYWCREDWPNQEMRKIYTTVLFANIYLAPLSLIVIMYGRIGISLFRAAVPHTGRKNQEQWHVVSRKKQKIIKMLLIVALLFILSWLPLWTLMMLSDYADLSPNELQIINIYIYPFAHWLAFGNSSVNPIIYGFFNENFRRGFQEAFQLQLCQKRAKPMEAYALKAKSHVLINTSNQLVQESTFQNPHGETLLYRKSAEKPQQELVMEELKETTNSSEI
Sequence of NPFF1 (Q9GZQ6 whole entry, species assumed): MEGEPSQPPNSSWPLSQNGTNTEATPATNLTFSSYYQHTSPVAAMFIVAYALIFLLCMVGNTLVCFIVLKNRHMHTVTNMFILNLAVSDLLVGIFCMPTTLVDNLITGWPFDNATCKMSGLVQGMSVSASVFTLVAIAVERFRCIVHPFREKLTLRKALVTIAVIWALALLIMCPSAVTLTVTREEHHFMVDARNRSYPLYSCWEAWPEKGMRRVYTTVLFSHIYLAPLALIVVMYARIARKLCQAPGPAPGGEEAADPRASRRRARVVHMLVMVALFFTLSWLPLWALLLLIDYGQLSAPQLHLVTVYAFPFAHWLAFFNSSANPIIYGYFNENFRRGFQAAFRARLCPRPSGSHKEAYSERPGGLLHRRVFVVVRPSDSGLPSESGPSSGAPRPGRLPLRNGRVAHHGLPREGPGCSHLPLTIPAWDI
T3 sequence (Q9Y5X5 103-522 limits assumed): as the sequence (Q9Y5X5 103-522) above
T1 sequence (P43116 whole entry): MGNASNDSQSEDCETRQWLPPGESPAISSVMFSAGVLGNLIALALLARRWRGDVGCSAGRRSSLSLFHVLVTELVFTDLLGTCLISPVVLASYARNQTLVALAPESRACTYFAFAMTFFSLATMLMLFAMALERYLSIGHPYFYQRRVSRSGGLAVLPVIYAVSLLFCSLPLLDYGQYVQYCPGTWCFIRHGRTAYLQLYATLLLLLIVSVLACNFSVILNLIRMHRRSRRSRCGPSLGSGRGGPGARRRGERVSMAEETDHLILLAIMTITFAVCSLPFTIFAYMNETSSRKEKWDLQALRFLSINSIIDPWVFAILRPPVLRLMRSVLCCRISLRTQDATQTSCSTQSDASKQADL

| Structure (SMILES) | Emax (NPFF1; [4]) [%] | EC50 (NPFF1; R-SAT, Table 1) [nM] | Emax (NPFF2; [5]) [%] | EC50 (NPFF2; [6]) [nM] | further results |
| --- | --- | --- | --- | --- | --- |
| CCCCC[C@H](O)/C=C/[C@H]1[C@H](O)CC(=O)[C@@H]1C/C=C\CCCC(=O)O [PGE2] |  |  |  |  | response in un-transfected HEK-T cells (EP2 receptor): no response |
| Cl.N=C(N)NN=Cc1ccc(Cl)c(Cl)c1 [Compound 1045.HCl, 1-(3,4-Dichlorobenzylideneamino)guanidine Hydrochloride] |  |  |  |  | side effects observed (rats; 10 mg/kg): demonstrated writhing behavior and appeared lethargic; side effects at doses less than 10 mg/kg (rats): not observed; Emax (NPFF1; R-SAT data, Table 2, multiple entries = different batches, read-out: NPFF1 % Efficacy Mean): 17.7%; EC50 (NPFF2; NPFF2b pEC50 Mean, R-SAT data, Table 2, multiple entries = different batches): 1000 nM; Emax (NPFF2; R-SAT data, Table 2, multiple entries = different batches, read-out: NPFF2b % Efficacy Mean): 67.6%; Emax (NPFF2b): 34% |
| CC(C)C[C@H](NC(=O)[C@@H](N)Cc1ccccc1)C(=O)N[C@@H](Cc1ccccc1)C(=O)N[C@@H](CCC(N)=O)C(=O)N1CCC[C@H]1C(=O)N[C@@H](CCC(N)=O)C(=O)N[C@@H](CCCN=C(N)N)C(=O)N[C@@H](Cc1ccccc1)C(N)=O [NPFF, Neuropeptide FF] |  |  |  |  | barrel-rotation after ICV administration (Barrel Rotations [1]): elicits barrel-rotation; rats demonstrating barrel rolling seizures (Barrel Rotations [2]; 60 μg): 0 out of 3; rats demonstrating barrel rolling seizures (Barrel Rotations [2]; 120 μg): 1 out of 2; rats demonstrating barrel rolling seizures (Barrel Rotations [2]; 150 μg): 3 out of 5 |
| CN1CC[C@]23c4c5ccc(O)c4O[C@H]2[C@@H](O)C=C[C@H]3[C@H]1C5 [Morphine, morphine] |  |  |  |  | A50, antinociception ([3]; 95% CI): 9.8 µg; antinociception in 52° C. water tail flick test ([3]; morphine 3, 10, 30 μg, NPFF 100 μg, 1045 11.6 or 115.5 μg, 1DME 5.6, 55.6 or 556.0 μg): produced dose-related antinociception |
| CN(CCC#N)c1ccc(C=NNC(=N)N)cc1 [Compound 3040, 1-{4-[Methyl-(2-cyanoethyl)amino]benzylideneamino}guanidine Hydrochloride] | 48 | 1580 | 70 | 2000 |  |
| COc1ccc(C(C)=NNC(=N)N)c(O)c1 (mixture of isomers) [Compound 3030, 1-[1-(2-Hydroxy-4-methoxyphenyl)ethylideneamino]guanidine Hydrochloride] | 7 |  | 22 | 6310 |  |
| N=C(N)NN=Cc1ccc(F)c(C(F)(F)F)c1 [Compound 2068, 1-[4-Fluoro-3-(trifluoromethyl)benzylideneamino]guanidine Hydrochloride] | 13 |  | 61 | 1000 |  |
| COc1ccc(C(F)(F)F)cc1C=NNC(=N)N [Compound 2074, 1-[2-Methoxy-5-(trifluoromethyl)benzylideneamino]guanidine Hydrochloride] | 19 | 10000 | 77 | 2510 |  |
| CCN(CCO)c1ccc(C=NNC(=N)N)c(C)c1 [Compound 3036, 1-{4-[Ethyl-(2-hydroxyethyl)amino]-2-methylbenzylideneamino}guanidine Hydrochloride] | 84 | 1260 | 82 | 631 |  |
